Measurements taken from ChEMBL document CHEMBL1201862, “PubChem BioAssay data set” (2004).
The source made the active and inactive calls.

Tests used:
Estrogen receptor beta = Estrogen receptor beta (Homo sapiens, UniProt Q92731);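 further: recombinant ER-beta bound to coactivator SRC1 peptide in presence of estradiol agonist; inhibitors block coactivator peptide binding and lower the FRET signal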
[1] = Luminescent dose response cell-based high throughput screening assay for inhibitors of the Janus kinase 2 mutant JAK2V617F. [Related pubchem assays: 1446 (Primary screen.), 1521 (Confirmation assay.), 1486 (Counter screen.)]; format: functional
[2] = NIH-3T3 fibroblast cytotoxicity, dose response, cytotoxicity control, cell-based, fluorescence, Alamar Blue, secondary assay (AID 2327); format: functional;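 further: NIH-3T3 mouse fibroblasts cultured with fluconazole at 8 µg/mL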
[3] = fluconazole-exposed Candida albicans growth modulators – fluorescence, retest, confirmation (AID 2467); format: functional, cell-based
Vero [4] = assay: cells; format: functional; conditions: Chlorocebus sabaeus
[5] = M. tuberculosis H37Rv growth inhibitors, H37Rv strain (AID 1626); format: functional
Hexokinase HKDC1 = molecular target: T1, Hexokinase HKDC1 (Homo sapiens, UniProt Q2TB90); assay: inhibition of HKDC1 glucose phosphorylation – biochemical, W721R variant, dose response (AID 504729); format: functional
T1 sequence (Q2TB90 whole entry): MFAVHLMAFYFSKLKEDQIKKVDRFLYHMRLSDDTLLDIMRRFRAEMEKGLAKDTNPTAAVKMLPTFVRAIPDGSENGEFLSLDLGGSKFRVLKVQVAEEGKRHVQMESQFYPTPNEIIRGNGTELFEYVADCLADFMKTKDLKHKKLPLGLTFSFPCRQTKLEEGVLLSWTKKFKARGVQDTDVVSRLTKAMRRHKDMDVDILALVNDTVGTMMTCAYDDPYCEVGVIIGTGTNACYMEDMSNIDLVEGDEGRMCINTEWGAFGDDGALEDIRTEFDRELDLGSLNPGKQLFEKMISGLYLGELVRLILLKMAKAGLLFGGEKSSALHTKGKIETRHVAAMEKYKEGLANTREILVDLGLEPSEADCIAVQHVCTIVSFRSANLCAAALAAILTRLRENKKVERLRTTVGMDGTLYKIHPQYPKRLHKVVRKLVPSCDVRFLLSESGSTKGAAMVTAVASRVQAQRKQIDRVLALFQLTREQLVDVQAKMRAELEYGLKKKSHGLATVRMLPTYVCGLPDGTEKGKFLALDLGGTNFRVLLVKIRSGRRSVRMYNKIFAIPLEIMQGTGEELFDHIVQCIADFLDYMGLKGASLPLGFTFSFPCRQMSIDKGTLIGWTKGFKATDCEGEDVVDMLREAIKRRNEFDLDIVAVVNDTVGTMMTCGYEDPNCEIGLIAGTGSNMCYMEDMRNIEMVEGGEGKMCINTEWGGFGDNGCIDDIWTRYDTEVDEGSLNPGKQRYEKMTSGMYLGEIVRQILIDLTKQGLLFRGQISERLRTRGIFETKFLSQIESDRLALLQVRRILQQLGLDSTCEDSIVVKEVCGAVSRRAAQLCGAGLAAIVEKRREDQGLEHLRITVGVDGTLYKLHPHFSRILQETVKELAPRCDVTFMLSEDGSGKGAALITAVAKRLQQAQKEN

[6] = HPDE-C7 pancreatic duct cell viability loss – fluorescence, HTS (AID 430); format: functional, cell-based; conditions: Homo sapiens
[7] = viability loss of HPDE-C7K cells – cell-based, fluorescence, HTS, primary screen (AID 431); format: functional; conditions: Homo sapiens
[8] = molecular target: Mitogen-activated protein kinase 10 (Homo sapiens, UniProt P53779); assay: Dose response biochemical screening assay for inhibitors of c-Jun N-Terminal Kinase 3 (JNK3). [Related pubchem assays: 746 ]
Chain of Mitogen-activated protein kinase 10 (P53779 whole entry): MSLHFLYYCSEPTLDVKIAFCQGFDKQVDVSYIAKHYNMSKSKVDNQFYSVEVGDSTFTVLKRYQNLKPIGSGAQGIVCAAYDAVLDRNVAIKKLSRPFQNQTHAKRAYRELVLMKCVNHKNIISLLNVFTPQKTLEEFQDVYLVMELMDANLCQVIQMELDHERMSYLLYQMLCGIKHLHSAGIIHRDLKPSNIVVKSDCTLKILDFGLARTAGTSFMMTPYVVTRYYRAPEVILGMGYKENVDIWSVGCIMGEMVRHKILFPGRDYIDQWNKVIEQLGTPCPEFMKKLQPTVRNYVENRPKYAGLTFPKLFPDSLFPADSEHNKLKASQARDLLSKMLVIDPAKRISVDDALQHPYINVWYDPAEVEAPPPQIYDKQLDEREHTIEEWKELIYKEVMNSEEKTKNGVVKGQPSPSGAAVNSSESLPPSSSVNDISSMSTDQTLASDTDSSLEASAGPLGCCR

cells = format: functional
Estrogen receptor = molecular target: T2, Estrogen receptor (Homo sapiens, UniProt P03372);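 further: potency for inhibiting coactivator peptide recruitment to the receptor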
T2 sequence (P03372 whole entry): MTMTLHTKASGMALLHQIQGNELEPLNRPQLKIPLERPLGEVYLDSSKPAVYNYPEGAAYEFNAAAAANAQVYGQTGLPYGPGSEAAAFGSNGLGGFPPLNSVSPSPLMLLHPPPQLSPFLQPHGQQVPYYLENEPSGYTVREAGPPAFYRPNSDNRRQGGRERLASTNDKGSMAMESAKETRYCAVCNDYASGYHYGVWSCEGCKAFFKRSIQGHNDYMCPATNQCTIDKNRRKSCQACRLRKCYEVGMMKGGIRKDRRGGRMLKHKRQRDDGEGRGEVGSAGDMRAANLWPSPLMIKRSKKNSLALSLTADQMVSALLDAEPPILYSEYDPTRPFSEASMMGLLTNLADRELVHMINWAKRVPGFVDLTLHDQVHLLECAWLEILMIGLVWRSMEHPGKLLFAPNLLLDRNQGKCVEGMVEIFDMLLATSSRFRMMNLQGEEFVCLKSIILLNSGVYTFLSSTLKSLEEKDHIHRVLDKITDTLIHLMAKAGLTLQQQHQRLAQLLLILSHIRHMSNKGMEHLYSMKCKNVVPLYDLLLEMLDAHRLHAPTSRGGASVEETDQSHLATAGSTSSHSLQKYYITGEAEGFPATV

[9] = molecular target: Induced myeloid leukemia cell differentiation protein Mcl-1 (Homo sapiens, UniProt Q07820); format: functional
Chain of Induced myeloid leukemia cell differentiation protein Mcl-1 (Q07820 whole entry): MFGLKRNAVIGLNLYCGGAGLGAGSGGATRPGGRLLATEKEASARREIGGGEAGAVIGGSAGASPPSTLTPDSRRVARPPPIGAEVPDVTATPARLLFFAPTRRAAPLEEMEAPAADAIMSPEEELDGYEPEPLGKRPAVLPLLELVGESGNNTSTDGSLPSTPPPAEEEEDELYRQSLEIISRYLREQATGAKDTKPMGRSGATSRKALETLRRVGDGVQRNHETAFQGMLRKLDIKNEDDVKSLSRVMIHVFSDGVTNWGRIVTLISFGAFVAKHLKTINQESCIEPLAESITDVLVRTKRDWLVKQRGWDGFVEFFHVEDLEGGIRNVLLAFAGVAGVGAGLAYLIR

Beta-galactosidase = Beta-galactosidase (Escherichia coli, UniProt Q8VNN2); assay: detection-enzyme interference by beta-gal modulators – biochemical, E. coli enzyme, set 3, artefact control for CCR6 antagonist project, dose response (AID 504712); format: functional
Chain of Beta-galactosidase (Q8VNN2 whole entry): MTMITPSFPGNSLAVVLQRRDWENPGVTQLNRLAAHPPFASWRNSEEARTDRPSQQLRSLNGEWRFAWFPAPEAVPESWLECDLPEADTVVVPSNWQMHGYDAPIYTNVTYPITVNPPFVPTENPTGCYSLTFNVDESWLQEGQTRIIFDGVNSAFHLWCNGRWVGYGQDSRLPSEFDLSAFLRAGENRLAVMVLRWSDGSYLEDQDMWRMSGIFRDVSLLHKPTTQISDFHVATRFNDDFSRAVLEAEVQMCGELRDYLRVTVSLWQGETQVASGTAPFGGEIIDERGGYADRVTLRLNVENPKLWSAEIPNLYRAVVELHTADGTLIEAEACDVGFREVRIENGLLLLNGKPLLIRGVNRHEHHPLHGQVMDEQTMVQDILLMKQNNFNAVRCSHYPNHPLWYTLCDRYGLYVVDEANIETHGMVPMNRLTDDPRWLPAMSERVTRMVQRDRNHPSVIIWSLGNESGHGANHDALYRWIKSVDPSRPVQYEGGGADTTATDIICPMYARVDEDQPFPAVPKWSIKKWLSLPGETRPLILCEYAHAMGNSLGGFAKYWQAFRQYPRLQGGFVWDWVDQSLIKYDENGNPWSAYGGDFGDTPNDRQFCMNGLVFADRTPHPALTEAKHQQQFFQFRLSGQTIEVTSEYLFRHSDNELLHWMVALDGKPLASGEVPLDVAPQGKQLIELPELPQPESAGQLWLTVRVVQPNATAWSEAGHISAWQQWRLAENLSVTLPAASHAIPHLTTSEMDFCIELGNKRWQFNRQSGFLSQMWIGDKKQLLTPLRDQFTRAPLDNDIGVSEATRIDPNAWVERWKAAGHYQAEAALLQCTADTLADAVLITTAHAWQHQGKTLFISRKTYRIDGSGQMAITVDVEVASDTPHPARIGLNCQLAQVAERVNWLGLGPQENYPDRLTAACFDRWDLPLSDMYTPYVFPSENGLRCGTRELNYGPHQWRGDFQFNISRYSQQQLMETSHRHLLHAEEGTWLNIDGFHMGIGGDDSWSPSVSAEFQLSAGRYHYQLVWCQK

Vero [10] = assay: viability of Vero cells under compound – cytotoxicity control for flavivirus capping enzyme inhibitors (AID 588742); format: functional; conditions: Chlorocebus sabaeus
Genome polyprotein = Genome polyprotein (dengue virus type 2, UniProt P29990); assay: flavivirus cap methylation enzyme inhibition – biochemical, confirmation dose response, primary screen (AID 588689); format: functional
Chain of Genome polyprotein (P29990 2492-3391 limits assumed): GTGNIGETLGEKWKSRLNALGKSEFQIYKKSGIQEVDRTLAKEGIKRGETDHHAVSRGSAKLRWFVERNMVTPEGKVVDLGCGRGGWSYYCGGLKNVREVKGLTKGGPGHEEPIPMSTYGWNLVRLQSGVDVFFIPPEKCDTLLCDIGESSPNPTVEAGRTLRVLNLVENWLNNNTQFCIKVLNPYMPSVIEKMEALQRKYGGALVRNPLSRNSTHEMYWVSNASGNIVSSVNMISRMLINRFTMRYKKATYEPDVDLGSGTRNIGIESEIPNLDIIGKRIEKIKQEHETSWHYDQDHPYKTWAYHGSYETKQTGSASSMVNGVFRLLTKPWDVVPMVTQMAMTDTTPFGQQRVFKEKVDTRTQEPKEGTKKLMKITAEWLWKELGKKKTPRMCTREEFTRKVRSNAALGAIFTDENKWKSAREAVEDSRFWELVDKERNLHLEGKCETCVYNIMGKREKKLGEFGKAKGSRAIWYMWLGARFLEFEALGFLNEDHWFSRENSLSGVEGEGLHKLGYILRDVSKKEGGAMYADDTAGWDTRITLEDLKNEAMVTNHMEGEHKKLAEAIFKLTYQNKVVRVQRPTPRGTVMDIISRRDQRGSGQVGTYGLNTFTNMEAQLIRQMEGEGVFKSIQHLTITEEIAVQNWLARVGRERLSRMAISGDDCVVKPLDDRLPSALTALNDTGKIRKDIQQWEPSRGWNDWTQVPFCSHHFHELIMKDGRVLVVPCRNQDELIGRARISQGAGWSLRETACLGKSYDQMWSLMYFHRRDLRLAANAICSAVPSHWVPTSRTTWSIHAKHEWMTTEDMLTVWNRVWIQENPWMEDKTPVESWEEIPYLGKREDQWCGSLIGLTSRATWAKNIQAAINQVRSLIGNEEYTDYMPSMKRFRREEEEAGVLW

[11] = molecular target: T3, Polyadenylate-binding protein 1 (Homo sapiens, UniProt P11940); assay: MLLE binding blockers, Cy5 peptide tracer – biochemical, fluorescence polarization, Cy5-PAM2 peptide, secondary, miRNA deadenylation inhibitor project, dose response (AID 602260); format: functional; conditions: read-out: IC50_Mean
T3 sequence (P11940 whole entry, the tested form may be a part): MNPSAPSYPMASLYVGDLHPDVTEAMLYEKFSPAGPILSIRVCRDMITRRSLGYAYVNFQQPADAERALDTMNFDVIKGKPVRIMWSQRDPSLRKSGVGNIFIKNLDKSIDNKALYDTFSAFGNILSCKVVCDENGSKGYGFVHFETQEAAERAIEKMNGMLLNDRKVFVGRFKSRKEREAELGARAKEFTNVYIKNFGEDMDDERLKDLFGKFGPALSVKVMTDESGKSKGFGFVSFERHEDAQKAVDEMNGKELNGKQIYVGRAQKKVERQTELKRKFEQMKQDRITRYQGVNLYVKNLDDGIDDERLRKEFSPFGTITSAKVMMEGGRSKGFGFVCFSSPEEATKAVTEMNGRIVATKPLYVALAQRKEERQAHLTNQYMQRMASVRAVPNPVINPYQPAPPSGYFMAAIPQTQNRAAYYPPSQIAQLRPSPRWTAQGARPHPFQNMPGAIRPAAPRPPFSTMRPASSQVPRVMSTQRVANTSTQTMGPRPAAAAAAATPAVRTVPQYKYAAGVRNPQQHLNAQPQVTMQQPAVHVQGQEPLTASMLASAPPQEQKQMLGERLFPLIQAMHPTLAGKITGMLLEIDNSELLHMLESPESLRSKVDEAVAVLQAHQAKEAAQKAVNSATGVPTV

[12] = molecular target: T3, Polyadenylate-binding protein 1; assay: MLLE domain peptide-binding blockers, IC50 – biochemical, fluorescence polarization, FITC-PAM2 peptide, dose response (AID 602259); format: functional; conditions: read-out: IC50_Mean
[13] = molecular target: T4, Heat shock factor protein 1 (Mus musculus, UniProt P38532); assay: enhancement of HSF1-driven luciferase signal – cell-based, NIH3T3, luminescence, dose retest, confirmation (AID 435004); format: functional;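 further: stress induced by proteasome inhibitor MG132 added 30 min after compound; luciferase reporter driven by HSF1 response element in NIH3T3 cells; actives raise luminescence as potentiators of the MG132 stress response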
T4 sequence (P38532 whole entry): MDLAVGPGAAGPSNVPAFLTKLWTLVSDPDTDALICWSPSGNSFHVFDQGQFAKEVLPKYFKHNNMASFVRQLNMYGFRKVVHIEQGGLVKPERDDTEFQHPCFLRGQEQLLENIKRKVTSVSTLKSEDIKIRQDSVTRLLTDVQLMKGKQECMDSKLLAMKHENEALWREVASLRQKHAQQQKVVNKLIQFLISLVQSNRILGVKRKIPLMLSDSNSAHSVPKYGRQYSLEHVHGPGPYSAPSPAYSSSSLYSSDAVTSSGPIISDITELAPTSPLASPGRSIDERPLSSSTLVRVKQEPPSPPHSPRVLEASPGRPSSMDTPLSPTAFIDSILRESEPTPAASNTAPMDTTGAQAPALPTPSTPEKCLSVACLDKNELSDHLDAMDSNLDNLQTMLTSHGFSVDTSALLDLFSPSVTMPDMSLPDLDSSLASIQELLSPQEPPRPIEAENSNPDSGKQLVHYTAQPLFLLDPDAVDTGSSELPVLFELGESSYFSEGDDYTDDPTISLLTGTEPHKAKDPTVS

[14] = molecular target: T5, Replicative DNA helicase DnaB (Mycobacterium tuberculosis, UniProt P9WMR3); assay: DnaB intein splicing inhibitors, dose response, biochemical, cell-free fluorescence (AID 449749); format: functional
T5 sequence (P9WMR3 whole entry): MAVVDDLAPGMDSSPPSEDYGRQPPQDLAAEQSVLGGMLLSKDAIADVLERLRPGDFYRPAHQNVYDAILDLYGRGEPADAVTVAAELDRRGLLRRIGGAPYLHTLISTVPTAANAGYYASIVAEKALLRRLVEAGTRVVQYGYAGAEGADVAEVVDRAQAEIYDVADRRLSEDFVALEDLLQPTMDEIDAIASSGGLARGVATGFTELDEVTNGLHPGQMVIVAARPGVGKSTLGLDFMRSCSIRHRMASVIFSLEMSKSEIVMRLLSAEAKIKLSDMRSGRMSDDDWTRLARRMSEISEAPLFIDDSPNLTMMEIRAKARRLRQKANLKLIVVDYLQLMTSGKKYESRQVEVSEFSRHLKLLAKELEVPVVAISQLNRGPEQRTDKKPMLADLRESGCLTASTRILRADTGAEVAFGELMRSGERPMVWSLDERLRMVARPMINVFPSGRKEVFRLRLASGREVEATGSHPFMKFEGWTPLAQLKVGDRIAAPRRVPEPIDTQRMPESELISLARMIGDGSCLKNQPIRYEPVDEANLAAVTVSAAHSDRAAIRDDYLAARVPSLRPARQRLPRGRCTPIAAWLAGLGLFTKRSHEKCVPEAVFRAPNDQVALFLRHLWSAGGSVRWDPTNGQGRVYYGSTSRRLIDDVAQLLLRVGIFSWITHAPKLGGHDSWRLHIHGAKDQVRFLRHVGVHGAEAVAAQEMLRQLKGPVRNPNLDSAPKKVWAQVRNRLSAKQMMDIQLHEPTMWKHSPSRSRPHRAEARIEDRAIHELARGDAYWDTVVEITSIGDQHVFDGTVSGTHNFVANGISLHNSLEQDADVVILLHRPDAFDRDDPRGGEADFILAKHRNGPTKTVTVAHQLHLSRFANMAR

Protein RecA = molecular target: T6, Protein RecA (Mycobacterium tuberculosis, UniProt P9WHJ3); assay: Fluorescence Cell-Free Homogeneous Dose Retest to Identify Inhibitors of RecA-Intein Splicing Activity. [Related pubchem assays (depositor defined):AID2097, AID2223, AID489010, AID492950]; format: functional
T6 sequence (P9WHJ3 whole entry): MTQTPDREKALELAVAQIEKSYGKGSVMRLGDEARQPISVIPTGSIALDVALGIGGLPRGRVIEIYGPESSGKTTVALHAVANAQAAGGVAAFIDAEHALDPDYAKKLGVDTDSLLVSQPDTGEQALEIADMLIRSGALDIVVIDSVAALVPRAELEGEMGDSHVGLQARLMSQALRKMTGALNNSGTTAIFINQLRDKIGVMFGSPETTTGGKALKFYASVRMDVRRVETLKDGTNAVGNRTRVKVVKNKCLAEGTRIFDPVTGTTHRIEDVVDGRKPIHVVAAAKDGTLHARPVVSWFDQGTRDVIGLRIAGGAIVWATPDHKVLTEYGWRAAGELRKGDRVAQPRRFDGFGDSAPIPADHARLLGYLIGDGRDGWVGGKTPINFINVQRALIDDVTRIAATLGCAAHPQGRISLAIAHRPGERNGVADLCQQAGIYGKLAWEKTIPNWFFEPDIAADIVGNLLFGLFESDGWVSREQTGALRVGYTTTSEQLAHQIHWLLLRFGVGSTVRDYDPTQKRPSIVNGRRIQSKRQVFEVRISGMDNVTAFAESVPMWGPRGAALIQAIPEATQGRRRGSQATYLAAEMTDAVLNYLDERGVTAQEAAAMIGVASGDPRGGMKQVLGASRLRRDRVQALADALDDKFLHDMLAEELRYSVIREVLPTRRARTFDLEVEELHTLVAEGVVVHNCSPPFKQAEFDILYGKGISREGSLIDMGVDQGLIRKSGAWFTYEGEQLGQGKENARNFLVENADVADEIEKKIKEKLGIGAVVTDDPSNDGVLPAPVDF

Prothrombin = Prothrombin (Homo sapiens, UniProt P00734); assay: Thrombin 1536 HTS Dose Response Confirmation. [Related pubchem assays: 1046 (Thrombin 1536 HTS; hits were confirmed in this assay)]; format: functional
Nonstructural protein 1 = Nonstructural protein 1 (Influenza A virus, UniProt Q194T2); format: functional, Influenza A virus (A/California/07/2009(H1N1))
Chain of Nonstructural protein 1 (Q194T2 whole entry): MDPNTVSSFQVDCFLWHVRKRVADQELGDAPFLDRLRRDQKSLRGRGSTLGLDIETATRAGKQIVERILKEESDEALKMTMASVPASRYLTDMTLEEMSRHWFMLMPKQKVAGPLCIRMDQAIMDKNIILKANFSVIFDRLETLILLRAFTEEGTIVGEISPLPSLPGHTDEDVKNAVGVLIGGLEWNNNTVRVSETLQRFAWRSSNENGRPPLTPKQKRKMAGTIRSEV

Chain of Estrogen receptor beta (Q92731 whole entry): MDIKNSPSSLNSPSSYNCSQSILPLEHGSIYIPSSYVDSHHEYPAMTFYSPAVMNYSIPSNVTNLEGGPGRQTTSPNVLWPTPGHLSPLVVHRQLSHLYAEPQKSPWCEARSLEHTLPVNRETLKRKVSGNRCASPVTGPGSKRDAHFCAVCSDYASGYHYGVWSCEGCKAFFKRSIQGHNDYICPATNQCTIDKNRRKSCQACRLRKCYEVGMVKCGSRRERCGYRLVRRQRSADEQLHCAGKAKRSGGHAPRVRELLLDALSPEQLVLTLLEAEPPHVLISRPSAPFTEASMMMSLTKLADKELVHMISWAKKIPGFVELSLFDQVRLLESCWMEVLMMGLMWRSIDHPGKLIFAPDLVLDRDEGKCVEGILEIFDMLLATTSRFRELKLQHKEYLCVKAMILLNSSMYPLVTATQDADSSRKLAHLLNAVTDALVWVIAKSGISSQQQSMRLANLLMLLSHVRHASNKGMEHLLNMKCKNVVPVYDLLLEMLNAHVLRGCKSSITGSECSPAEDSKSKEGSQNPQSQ

In the case of CSc1ccccc1NC(=O)c1ccccc1N(Cc1ccccc1)S(C)(=O)=O, the IC50 (Estrogen receptor beta) is reported as > 50 µM (not active).

For COc1ccccc1C(C[N+](=O)[O-])c1c(N)n(C)c(=O)n(C)c1=O (stereo not given), the IC50 [1] was 1.61 µM (active), the EC50 [2] was 9.19 µM (active) and the EC50 [3] was 6.01 µM (active). The CC50 (Vero [4]) was 9.01 µM (active).

In the case of Cc1ccccc1N1C(=O)NC(=O)/C(=C/Nc2ccc3c(c2)OCO3)C1=O, the IC50 [5] is reported as > 100 µM (active).

For Oc1ccc(O)c(Cc2nc3ccccc3[nH]2)c1, the IC50 (Hexokinase HKDC1) was 3.45 µM (active).

With Cc1ccc(S(=O)(=O)c2cc3c(=O)n4ccccc4nc3n(Cc3ccco3)c2=N)cc1C the EC50 [6] was 18.8 µM (active) and the EC50 [7] was 17.9 µM (active).

For CC12CNCC(C)(CNC1)C2O (stereo not given), the EC50 [6] was > 20 µM (not active) and the EC50 [7] was > 20 µM (not active).

For Cc1ccccc1NC(=O)c1[nH]cnc1C(=O)NCc1ccccc1, the IC50 [8] was > 31 µM (not active) and the IC50 (cells) was 10.3 µM (active).

With Cc1ccc(S(=O)(=O)N2CCN(C(=O)CSc3ncc(C(F)(F)F)cc3Cl)CC2)cc1 the IC50 (Estrogen receptor) was > 50 µM (not active).

With O=C(Cc1cccs1)Nc1nncs1 the IC50 (Estrogen receptor beta) was 17 µM (active).

In the case of CCOC(=O)/C=C(\C)Sc1cc(O)c2ccccc2c1O, the IC50 [9] is reported as 10.5 µM (active), the IC50 (Beta-galactosidase) is reported as > 66.6 µM (inactive) and the IC50 (Hexokinase HKDC1) is reported as 11.8 µM (active). For the same compound, the CC50 (Vero [10]) was 22 µM (active), the IC50 (Genome polyprotein) was 5.24 µM (active) and the IC50 [11] was > 66 µM (inactive). The IC50 [12] was > 66 µM (inactive).

For Cc1ccc(C(=O)/C=C\Nc2ccc(C)c(C)c2)cc1, the IC50 [5] was > 100 µM (active).

In the case of COC1(OC)C(/C=C/c2ccc(Cl)cc2)C(C#N)(C#N)C1(OC)OC (stereo not given), the IC50 [1] is reported as 1.76 µM (active), the EC50 [13] is reported as 33.6 µM (active) and the AC50 [14] is reported as 33.8 µM (active). For the same compound, the EC50 (Protein RecA) was 2.45 µM (active).

In the case of O=C(Oc1oc(-c2ccco2)nc1/C=N/c1ccccc1)c1ccco1, the EC50 [6] is reported as > 20 µM (not active), the EC50 [7] is reported as > 20 µM (not active) and the IC50 (Prothrombin) is reported as 1.32 µM (active).

With CCOC(=O)c1c(N)sc(=S)c2c1CCC2 the IC50 (Estrogen receptor beta) was > 50 µM (not active), the IC50 (Nonstructural protein 1) was > 100 µM (active) and the IC50 [11] was > 66 µM (inactive). For the same compound, the IC50 [12] was > 66 µM (inactive).

In the case of CCc1sc(N)nc1-c1ccccc1, the IC50 [5] is reported as > 100 µM (active).
